# Test results reported in US11524009B2, “Combination comprising at least one spliceosome modulator and at least one inhibitor chosen from BCL2 inhibitors, BCL2/BCLxL inhibitors, and BCLxL inhibitors and methods of use” (Eisai R&D Management Co., Ltd., priority 2017, dated 2022).
# How the values were obtained:
# Assay type in all cases: cell-based
# [1] = system: MCL1 gene splicing in NCIH1568 cells; assay: Quantitative RT-PCR detection of MCL1 mRNAs (splicing modulation); settings: six-hour treatment, qRT-PCR
# Description: RNA lysates were isolated from cells treated with compounds in 96 well plates and reverse transcribed using TaqMan Gene Expression Cells-to-CT Kit (Thermo Fisher Scientific) according to manufacturer's instruction. Quantitative PCR was performed using TaqMan Gene Expression Master Mix (Thermo Fisher Scientific) with MCL1 transcript probes (Integrated DNA technologies FAM-ZEN/IBFQ) duplexed with 18S rRNA VIC-PL (Thermo Fisher Scientific assay ID Hs99999901_s1) and quantified using the ΔΔCt method.
# [2] = system: MCL1 protein in NCIH1568 cells; assay: Western Blot Analysis of MCL1L, truncated MCL1 and cleaved PARP; settings: 6 hours
# Description: Cell lines were lysed in RIPA buffer (Boston BioProducts) plus protease-inhibitor cocktail (Mini-complete, EDTA-free, Roche) and phosphatase inhibitor PhosSTOP (Roche). Lysates were diluted in RIPA buffer with 4×LDS Sample Buffer (Nupage, Thermo Fisher Scientific) and 10× Reducing Reagent (Nupage, Thermo Fisher Scientific) and boiled for 5 minutes. Twenty five micrograms of protein were loaded per well in 4-12% Bis-Tris SDS Page gels (Novex, Thermo Fisher Scientific). Gels were transferred to nitrocellulose membranes using iBlot system (Thermo Fisher Scientific). Membranes were blocked in blocking buffer (1× Tris-Buffered Saline+0.1% Tween-20 (Boston Bioproducts)+5% Non-Fat Dry Milk (Bio-Rad)) for 1 hour and then cut. Each section was probed separately with antibodies to each of the following proteins in blocking buffer: MCL1 (Cell Signaling Technologies 5453) (D35A5) rabbit monoclonal diluted 1:500, BCL-xL (Cell Signaling Technologies 2764) (54H6) rabbit monoclonal diluted 1:500, Cleaved Parp (Cell Signaling Technologies 5625) (D64P10) rabbit monoclonal diluted 1:500, and GAPDH (Sigma G8795) mouse monoclonal at 100 ng/mL. Blots were incubated with primary antibodies dilutions shaking at 4° C. overnight. Western blots were then blotted either with Odyssey Licor or HRP secondary antibodies. Blots were then washed four times using wash buffer (1× Tris-Buffered Saline+0.1% Tween-20). Blots imaged using Licor were probed shaking at room temperature for 1 hour with Licor IR-labeled secondary antibodies, IRDye® 800CW Goat anti-Rabbit IgG (Odyssey 925-32211) and IRDye® 680LT Goat anti-Mouse IgG (Odyssey 925-68020) diluted 1:10,000 in blocking buffer. Blots were then washed three times with wash buffer. IR-dye detection was performed using the Licor imaging system (Odyssey) according to manufacturer's instruction. Blots imaged using HRP were probed shaking at room temperature for 1 hour with Anti-mouse IgG, HRP-linked Antibody (Cell Signaling Technologies 7076) and Anti-rabbit IgG, HRP-linked Antibody (Cell Signaling Technologies 7074) diluted 1:5000 in blocking buffer. […]
# NCIH1568 cells = assay: Growth inhibition, MCL1 rescue by MCL1L cDNA overexpression; settings: NCIH1568 (MCL1-dependent), Dox-induced MCL1L cDNA vs empty vector
# Text: (§1) BCL-xL shRNA 1 ([…]) (Wei G, et al., 2012, Cancer Cell 21(4): 547-562) was cloned into Agel and EcoRl of the Tet inducible lentiviral pLKO-iKD-H1 puro vector (Wiederschain D, et al., 2009, Cell Cycle 8(3): 498-504). MCL1 shRNA 48 ([…]) (Wei G, et al., 2012, Cancer Cell 21(4): 547-56) was cloned into Agel and EcoRl of the Tet inducible lentiviral pLKO-iKD-U6 puro vector. MCL1-L pENTR-D-TOPO was Gateway cloned (LR clonase, Thermo Fisher Scientific) into pINDUCER20 (Meerbrey K L, et al., 2011, Proc Natl Acad Sci USA. 108(9):3665-3670). Lentiviruses were prepared in LentiX-293T cells. […]
# (§2) For compound dose response experiments, cells were plated in 96 or 384 well plates at 1,000 cells in 50 μl per well. […] At t=0, untreated cells were lysed with CellTiter-Glo and measured on an Envision plate reader. At t=72 (72 hours after compound addition), cells treated with compound were lysed with CellTiter-Glo and analyzed on Envision. The luminescence value from each treatment sample was normalized to the average value of the respective DMSO control. […]
# A549 cells = assay: Growth inhibition with or without Dox-induced knockdown of BCLxL
# Text: as §1, §2
structure (smiles),measurement,setting,value
"CC[C@H](O)[C@@H](C)[C@H]1O[C@@H]1C[C@@](C)(O)/C=C/C=C(\C)[C@H]1OC(=O)C[C@H](O)CC[C@@](C)(O)[C@@H](OC(=O)N2CCN(C3CCCCCC3)CC2)/C=C/[C@@H]1C [E7107, (8E,12E,14E)-7-((4-Cycloheptylpiperazin-1-yl)carbonyl)oxy-3,6,16,21-tetrahydroxy-6,10,12,16,20-pentamethyl-18,19-epoxytricosa-8,12,14-trien-11-olide]",MCL1L mRNA,[1],robust reduction
same,MCL1S mRNA,[1],transient expression
same,MCL1 pre-mRNA with intron-retention,[1],continuous induction
same,cleaved PARP protein (indicator of apoptosis),[2],induction
same,full length MCL1 protein,[2],dose-dependent downregulation
same,truncated short-form MCL1 protein product,[2],increased in a dose-dependent manner
same,cell death with cDNA overexpression of MCL1L,NCIH1568 cells,rescued the cell death
same,growth inhibition,"A549 cells; A549 (MCL1-independent), without BCLxL knockdown",cytostatic inhibition
same,growth inhibition,"A549 cells; A549, inducible knockdown of BCLxL (Dox)",clear cell death
